# Assay results: US20050043262A1, “Novel specific inhibitor of the cyclin kinase inhibitor p21Waf1/Cip1 and methods of using the inhibitor” (priority 2000, published 2005)
# Tests used:
# α-actin [1] = test: alpha-actin protein level by Western blot in A10 VSM cells; format: cell-based, rat
# Experimental: (§1) Western blots: Cells were grown to confluence in 6 cm culture dishes and serum deprived. After transfection and or treatment with appropriate agonist, the cells were washed with phosphate-buffered saline and lysed in lysis buffer and the supernatant was Western blotted as described (Weiss et al., 1998 Am. J. Physiol., 274, p. C1521-C1529).
# At the times indicated after the overnight incubation (in hours), the medium was changed to quiescence medium and the cells were stimulated with PMA for 4 hours to show maximal p21^Waf1/Cip1 expression (FIG. 6a). The lysates were immunoblotted with (a) p21^Waf1/Cip1 or p27^Kip1 antibody or (b) α-actin antibody. This is likely due to sequence similarity between the two genes, as p21^Waf1/Cip1 shares 43% sequence identity with p27^Kip1 in the cdk/cyclin binding site (residues 27-88), located in the conserved N terminus (Nomura et al., 1997 Gene, 191, p. 211-218; Toyoshima and Hunter, 1994 Cell, 78, p. 67-74).
# Using a random sequence phosphorothioate oligodeoxynucleotide (SEQ. ID NO.:3) as a control, the effect of the antisense oligodeoxynucleotide to p21 (400 nM) on p21 and α-actin protein expression in A10 VSM cells, was examined. The lysates, normalized for protein content, were Western blotted with either p21 or α-actin antibody.
# α-actin [2] = test: alpha-actin level by Western blot in A431 cells; format: cell-based, human; conditions: 200 nM oligodeoxynucleotide
# Experimental: as §1, with “and Nuccitelli, 1992” for “et al., 1998 Am.”, “Biol. Chem., 267,” for “Physiol., 274,”, “5608-5613).” for “C1521-C1529).”
# PMA is a potent inducer of p21^Waf1/Cip1 in a variety of different cell lines (Huang et al., 1995 Proc. Natl. Acad. Sci. US.A., 92, p. 4793-4797; Michieli et al., 1994 Cancer Res., 54, p. 3391-3395) and was employed to examine p21^Waf1/Cip1 levels after antisense transfection and confirm efficacy of translation to attenuate p21^Waf1/Cip1 levels. A431 cells were transfected with 200 nM antisense p21^Waf1/Cip1 (SEQ. ID NO.:1) or sense p21^Waf1/Cip1 oligodeoxynucleotide (SEQ. ID NO.:2). After overnight incubation in serum-free medium, the cells were stimulated with PMA (100 ng/ml) for the times indicated, lysed, and the lysates were Western blotted with p21^Waf1/Cip1 or α-actin antibody.
# Rb = Rb hyperphosphorylation by Western blot in A431 cells; format: cell-based, human; conditions: 400 nM, 10% serum 6 and 24 hours
# Experimental: Upon activation by cyclin/cdk complexes, the Rb protein in turn becomes phosphorylated, causing it to release the transcription factors known as E2F, leading to early oncogene expression and ultimately to cell growth. An effect of p21^Waf1/Cip1 on cdk/Rb interaction would be evident by a change in phosphorylation state of the Rb protein: this property can be assessed by examining small changes in gel mobility of this protein. A431 cells were transfected with 400 nM antisense p21^Waf1/Cip1 oligodeoxynucleotide (SEQ. ID NO.:1) or with lipofectin only (no DNA). After overnight incubation in serum-free medium, the cells were stimulated with complete media for 6 or 24 hours, lysed, and the lysates were Western blotted with Rb antibody.
# cyclin E/cdk 2 = test: Cyclin E immunoprecipitation / cdk 2 immunoblot in A10 VSM cells; format: cell-based, rat; conditions: PDGF-BB 30 ng/ml
# Experimental: (§2) Cells were transfected with p21^Waf1/Cip1 antisense (SEQ. ID NO.:1) or sense oligodeoxynucleotide (SEQ. ID NO.:2), allowed to grow overnight in serum-free media. After overnight incubation in serum-free medium, the cells were stimulated with PDGF-BB (30 ng/ml) for the times indicated. The cells were subsequently immunoprecipitated with either cyclin D1 or cyclin E and immunoblotted with cdk 4 or cdk 2, respectively.
# caspase-3 = test: Caspase-3 activation (cleavage product) by Western blot in VSM cells; format: cell-based, rat
# Experimental: FIGS. 19A and B depict how Caspase-3 is activated by antisense oligonucleotide to p21 but not early after radiation or Adriamycin, as described in Example III, infra. Confluent VSM cells were transfected with oligonucleotide in the concentration indicated, left in serum-containing media overnight, and exposed to (A) ionizing radiation (12 Gy) or (B) Adriamycin where indicated. 4 hours later, activation of caspase-3 was assessed by Western blotting. The arrowhead indicates the cleavage product of caspase-3 signifying its processing as an early step in apoptosis. Wortmannin (wort) is a positive control for apoptosis. […] The experiment shown is representative of two separate experiments.
# Western blots: Cells were grown to confluence in 6 cm culture dishes and serum deprived. After transfection and or treatment with appropriate agonist, conditioned medium was removed and saved and the cells were washed with phosphate-buffered saline and lysed in lysis buffer. Both supernatant and cell lysate were normalized to the lysate protein concentrations and Western blotted as described (Weiss R H, et al. Am J Physiol 274:C1521-C1529, 1998).
# In order to determine whether the potentiation of ionizing radiation and Adriamycin induced DNA synthesis inhibition by p21 antisense oligonucleotides is accompanied by apoptosis, caspase-3 activation in response to ionizing radiation was examined. Caspase-3 is an effector caspase whose activation (leading to apoptosis) results in a 20 kD cleavage product which can be assessed by Western blotting (McCarthy N J, Evan G I. Curr Top Dev Biol 36:259-278, 1998). This process is an early event in a cascade of reactions which ultimately leads to apoptosis, as is evident by the fact that inactivation of caspase-3 dramatically reduces apoptosis in several cell lines (Woo M, et al. Genes Dev 12:806-819, 1998).
# VSM cells were transfected with antisense or control oligonucleotides overnight and then stimulated with ionizing radiation.
# cyclin D1/cdk 4 = test: Cyclin D1 immunoprecipitation / cdk 4 immunoblot in A10 VSM cells; format: cell-based, rat; conditions: PDGF-BB 30 ng/ml, all times
# Experimental: as §2
substance,measurement,setting,value
5′-GACATCACCAGGATCGGACAT-3′,α-actin protein level,α-actin [1]; 400 nM,no effect
same,levels of α-actin,α-actin [1]; identical conditions to p21 blot,not altered
same,levels of α-actin,α-actin [2],not altered
same,serum-induced Rb hyperphosphorylation versus no-DNA control,Rb,no difference
same,cyclin E/cdk 2 interaction,cyclin E/cdk 2,no change
same,caspase-3 activation,caspase-3; Adriamycin experiment (FIG. 19b),caspase-3 activation was observed
same,caspase-3 activation,"caspase-3; alone or after ionizing radiation 12 Gy, 4 hours",impressive increase
same,association of cyclin D1 and cdk 4,cyclin D1/cdk 4,marked decrease
